Reference: patent EP0503537B1, “6,9 Bis(substituted-amino)benzo-[g]isoquinoline-5,10-diones” (THE UNIVERSITY OF VERMONT, priority 1991, dated 1992)
≈ marks a conversion by molar mass, not a printed value. Like-named read-outs stand apart in the source and are kept apart here.

Assays:
[1] = system: human colon adenocarcinoma cell line (Lovo); assay: MTT cytotoxicity assay on human colon adenocarcinoma Lovo cells; type: cell-based; conditions: read-out: IC50 µg/ml±S.D. LoVo
Procedure: (§1) The evaluation of the "in vitro" cytotoxic activity of the compounds of the invention was performed using a human colon adenocarcinoma cell line (Lovo) isolated from a metastatic nodule and a subline with aquired resistance to a number of antitumor agents, among which doxorubicin, VP-16 and vincristine. […] The compounds were tested according to the MTT assay (Mosman, T., "Rapid Colorimetric assay for cellular growth and survival: application to proliferation and cytotoxicity assay", J. Immunol. Methods, (1983), 65, 55-63; Green, L.M., "Rapid colorimetric assay for cell viability; application to the quantitation of cytotoxic and growth inhibitory lymphokines", J. Immunol. Methods, (1984), 70, 257-268) in comparison with mitoxantrone, ametantrone and doxorubicin.
(§2) In vitro biological evaluation: MTT assay on human colon adenocarcinoma Lovo cells.
(§3) The MTT assay was performed according to Mosmann, T., J. Immunol. Methods, (1983), 65, 55-63 and Green, L. M., J. Immunol. Methods, (1984), 70, 257-268.
(§4) Immediately before use, compounds and reference standards are dissolved in proper solvent and subsequently further diluted in complete culture medium. Human colon adenocarcinoma cells Lovo and the subline resistant to doxorubicin (Lovo/DX) (2.5. 10^4 cells/ml) are plated in 96-well plates and preincubated for 24 hours in culture medium. After this time, the cells are exposed to drugs for 144 hours, then the thiazolyl blue tetrazolium bromide solution (MTT solution) is added and the cells are reincubated for 4 hours. The supernatant is removed and 150 µl of dimethylsulfoxide are added to solubilize formazan crystals. The plate is read at 570 nm with microplate reader and the inhibiting concentration of 50% cellular growth (IC50; µg/ml) is calculated.

Lovo/DX = assay: MTT cytotoxicity assay on doxorubicin-resistant subline Lovo/DX; type: cell-based, human; conditions: for IC50: Homo sapiens, LoVo/DX, MTT assay, 144 hrs drug exposure, read-out: IC50 µg/ml±S.D. LoVo/Dx; for R.I.: R.I. = (IC50 LoVo/Dx)/(IC50 LoVo); for cross resistance with mitoxantrone and ametantrone: resistant subline Lovo/DX
Procedure: as §1, §2, §3, §4

P388 Murine Leukemia [2] = assay: In vivo P388 murine leukemia (iv/iv, d 1, 4, 7); conditions: for T/C% (range): median survival time; for TOX: toxic deaths/total number of mice; for LTS: tumor free at 60 days
Procedure: P388 Murine Leukemia cells were maintained in vivo by serial intraperitoneal (i.p.) injections of 10^6 cells in DBA2 mice. For test purposes, CDF1 mice were inoculated intravenously (i.v.) with 10^6 P388 cells and treatment was initiated 24 hr later. The i.v. dose of drug was administered on days 1, 4 and 7. Mice were observed daily for signs of toxicity and survival. The date of death was recorded for each animal that died or was sacrificed during the 60 day study. The median survival time (MST) for each treatment group was calculated and the % T/C was determined using the following formula: % T/C = [(MST treated)/(MST control)] x 100 [formula]

P388 Murine Leukemia [3] = assay: In vivo ascitic P388 murine leukemia (ip/ip, d 1, 5, 9); set-up: species or system CDF1 mice; conditions: for % T/C (range): median survival time; for TOX: toxic deaths/total No. of mice
Procedure: Treatment was initiated approximately 24 hours after tumor transplantation and dosages of the drug were administered ip (P388 ip/ip) or iv (P388 iv/iv) according to preestablished protocols, usually at 3-day (P388 iv/iv) or 4-day (P388 ip/ip) intervals. The studies were done over a 60-day period and the date of death for each animal was recorded. The % T/C was determined using the mean survival time (MST) for each group according to the formula % T/C = [(MST treated)/(MST control)] x 100 [formula]
(§5) P388 Murine Leukemia cells were maintained in vivo by serial intraperitoneal (ip) injections of 10^6 cells in DBA2 mice. For test purposes, CDF1 mice were inoculated i.p. with 10^6 P388 cells and treatment was initiated 24 hours later. The i.p dose of drug was administered on days 1, 5 and 9. Mice were observed daily for signs of toxicity and survival. The date of death was recorded for each animal that died or was sacrificed during the 60-day study. The median survival time (MST) for each treatment group was calculated and the % T/C was determined using the following formula: % T/C = [(MST treated)/(MST control)] x 100 [formula]

L1210 murine leukemia = assay: In vivo ascitic L1210 murine leukemia (ip/ip, d 1, 5, 9), protocol b, 10^5 cells; set-up: species or system CDF1 mice; conditions: for %T/C: median survival time; for TOX: toxic deaths/total No. of mice; for LTS: tumor free at 60 days
Procedure: Dosages of the drugs were administered ip according to preestablished protocols, usually at 4-day intervals. The studies were done over a 60-day period and the date of death for each animal was recorded. The % T/C was determined using the mean survival time (MST) for each group according to the formula % T/C = [(MST treated)/(MST control)] x 100 [formula]
as §5, with “• a) L1210 murine leukemia cells” for “P388 Murine Leukemia cells”, “by weekly” for “by serial”, “in BDF1” for “in DBA2”, “mice. For test purposes, mice were inoculated i.p. with 10^6 L1210 cells and treatment was initiated 24 hours later. The desired dose of drug was administered on days 1, 5 and 9. Mice were observed daily for signs of toxicity and survival. The date of death was recorded for each animal that died or was sacrificed during the 60-day study. […]” for “mice.”, “with 10^5 L1210” for “with 10^6 P388”, “The desired” for “The i.p”

[4] = MTT assay, 144 hrs drug exposure

O=C1c2ccccc2C(=O)c2c(NCCNCCO)ccc(NCCNCCO)c21 [Ametantrone, 1,4-bis{[2-(2-hydroxyethylamino)ethyl]amino}anthracene-9,10-dione, reference compound]
IC50 [1, 4]: 0.33 ± 0.1 µg/mL (≈ 0.8 µM)
IC50 (Lovo/DX): 33.4 ± 13.9 µg/mL (≈ 81 µM)
R.I. (Lovo/DX): 101.2

CCN(CC)CCNc1ccc(NCCN(CC)CC)c2c1C(=O)c1ccncc1C2=O [Compound 10b, 6,9-Bis{[2-(diethylamino)ethyl]amino}benzo[g]isoquinoline-5,10-dione]
IC50 [1, 4]: 0.29 ± 0.05 µg/mL (≈ 0.663 µM)
IC50 (Lovo/DX): 0.69 ± 0.1 µg/mL (≈ 1.58 µM)
R.I. (Lovo/DX): 2.4
cross resistance with mitoxantrone and ametantrone (Lovo/DX): no cross resistance

O=C1c2ccncc2C(=O)c2c(NCCN3CCCC3)ccc(NCCN3CCCC3)c21 [Compound 10d, 6,9-Bis{[2-(1'-pyrrolidino)ethyl]amino}benzo[g]isoquinoline-5,10-dione]
IC50 [1, 4]: 0.2 ± 0.03 µg/mL (≈ 0.461 µM)
IC50 (Lovo/DX): 0.52 ± 0.15 µg/mL (≈ 1.2 µM)
R.I. (Lovo/DX): 2.6
cross resistance with mitoxantrone and ametantrone (Lovo/DX): no cross resistance

O=C1c2ccncc2C(=O)c2c(NCCN3CCOCC3)ccc(NCCN3CCOCC3)c21 [Compound 10e, 6,9-Bis{[2-(4'-morpholino)ethyl]amino}benzo[g]isoquinoline-5,10-dione]
IC50 [1, 4]: 5.32 ± 1.55 µg/mL (≈ 11.4 µM)
IC50 (Lovo/DX): 2.29 ± 0.67 µg/mL (≈ 4.92 µM)
R.I. (Lovo/DX): 0.4
cross resistance with mitoxantrone and ametantrone (Lovo/DX): no cross resistance

NCCCNc1ccc(NCCCN)c2c1C(=O)c1ccncc1C2=O [Compound 12a, 6,9-Bis{[3-(amino)propyl]amino}benzo[g]isoquinoline-5,10-dione]
IC50 [1, 4]: 1.64 ± 0.02 µg/mL (≈ 4.64 µM)
IC50 (Lovo/DX): 20.9 ± 0.72 µg/mL (≈ 59.1 µM)
R.I. (Lovo/DX): 12.7

CN(C)CCCNc1ccc(NCCCN(C)C)c2c1C(=O)c1ccncc1C2=O [Compound 12c, 6,9-Bis{[3-(dimethylamino)propyl]amino}benzo[g]isoquinoline-5,10-dione]
IC50 [1, 4]: 0.15 ± 0.07 µg/mL (≈ 0.366 µM)
IC50 (Lovo/DX): 0.36 ± 0.04 µg/mL (≈ 0.879 µM)
R.I. (Lovo/DX): 2.4
cross resistance with mitoxantrone and ametantrone (Lovo/DX): no cross resistance

COc1cccc2c1C(=O)c1c(O)c3c(c(O)c1C2=O)C[C@@](O)(C(=O)CO)C[C@@H]3O[C@H]1C[C@H](N)[C@H](O)[C@H](C)O1 [Doxorubicin, reference compound]
IC50 [1, 4]: 0.03 ± 0.009 µg/mL (≈ 0.0552 µM)
IC50 (Lovo/DX): 4.28 ± 1.8 µg/mL (≈ 7.87 µM)
R.I. (Lovo/DX): 142.7

O=C1c2c(O)ccc(O)c2C(=O)c2c(NCCNCCO)ccc(NCCNCCO)c21 [Mitoxantrone, 5,8-dihydroxy-1,4-bis{[2-(2-hydroxyethylamino)ethyl]amino}anthracene-9,10-dione, reference compound]
IC50 ([1]; 144 h): 0.01 ± 0.009 µg/mL (≈ 0.0225 µM)
IC50 (Lovo/DX): 0.29 ± 0.1 µg/mL (≈ 0.652 µM)
R.I. (Lovo/DX): 29.0
T/C% (range) (P388 Murine Leukemia [2]; 2 mg/kg/day iv days 1,4,7): 162(154-167) %
TOX (P388 Murine Leukemia [2]; 2 mg/kg/day iv days 1,4,7): 0/42
LTS (P388 Murine Leukemia [2]; 2 mg/kg/day iv days 1,4,7): 0/42
T/C% (range) (P388 Murine Leukemia [2]; 3 mg/kg/day iv days 1,4,7): 185(167-217) %
TOX (P388 Murine Leukemia [2]; 3 mg/kg/day iv days 1,4,7): 4/78
LTS (P388 Murine Leukemia [2]; 3 mg/kg/day iv days 1,4,7): 0/78
T/C% (range) (P388 Murine Leukemia [2]; 4 mg/kg/day iv days 1,4,7): 118(89-133) %
TOX (P388 Murine Leukemia [2]; 4 mg/kg/day iv days 1,4,7): 20/24
LTS (P388 Murine Leukemia [2]; 4 mg/kg/day iv days 1,4,7): 0/24
LTS (day 60) (P388 Murine Leukemia [3]; 1.5 mg/kg/day ip days 1,5,9): 1/26
% T/C (range) (P388 Murine Leukemia [3]; 1.5 mg/kg/day ip days 1,5,9): 186(160-225) %
TOX (P388 Murine Leukemia [3]; 1.5 mg/kg/day ip days 1,5,9): 6/26
LTS (day 60) (P388 Murine Leukemia [3]; 3 mg/kg/day ip days 1,5,9): 1/42
% T/C (range) (P388 Murine Leukemia [3]; 3 mg/kg/day ip days 1,5,9): 173(142-205) %
TOX (P388 Murine Leukemia [3]; 3 mg/kg/day ip days 1,5,9): 21/42
%T/C (L1210 murine leukemia; 1.5 mg/kg/day ip days 1,5,9): 188%
TOX (L1210 murine leukemia; 1.5 mg/kg/day ip days 1,5,9): 0/8
LTS (L1210 murine leukemia; 1.5 mg/kg/day ip days 1,5,9): 1/8
%T/C (L1210 murine leukemia; 3 mg/kg/day ip days 1,5,9): 194%
TOX (L1210 murine leukemia; 3 mg/kg/day ip days 1,5,9): 1/8
LTS (L1210 murine leukemia; 3 mg/kg/day ip days 1,5,9): 1/8
